In patent US4791133A, “Phenylene, furyl, and thienyl leukotriene B4 analogues” (G. D. Searle & Co., priority 1987, dated 1988):
Several values for one entry are separate records, joined by “and”; a condition that tells them apart may be missing. Identical values can stand only once. Counter-ions that a name gives are not always drawn.

How the values were obtained:
LTB4 receptors = target: T1, LTB4 receptors (Homo sapiens, UniProt Q15722); experiment: LTB4 Receptor Binding Assay ((3H) LTB4, human neutrophils); conditions: 0.6 nM (3H) LTB4, human neutrophils; for IC50: 0° C., 45 minutes, pH 7.4, read-out: Inhibition of Receptor Binding of LTB4 IC50
T1 construct: neutrophils were purified from venous blood of normal human donors; endogenous in cells; host or cells: neutrophils purified from venous blood of normal human donors (purity ≥95%)
T1 sequence (Q15722 whole entry): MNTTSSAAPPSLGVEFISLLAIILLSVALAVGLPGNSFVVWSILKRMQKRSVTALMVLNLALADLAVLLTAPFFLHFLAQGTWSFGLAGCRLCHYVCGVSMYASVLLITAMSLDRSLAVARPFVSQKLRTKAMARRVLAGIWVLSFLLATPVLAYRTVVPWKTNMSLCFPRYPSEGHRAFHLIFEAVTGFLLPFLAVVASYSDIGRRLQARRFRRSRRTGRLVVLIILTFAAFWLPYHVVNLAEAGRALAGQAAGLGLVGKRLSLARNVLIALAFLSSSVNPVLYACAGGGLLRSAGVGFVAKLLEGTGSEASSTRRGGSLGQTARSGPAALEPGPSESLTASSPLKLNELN
From the text: (§1) For use in both the "LTB4 receptor Binding Assay" and the "Human Neutrophil Degranulation Assay", neutrophils were purified from venous blood of normal human donors using standard techniques of dextran sedimentation, centrifugation on Histopaque® (density solution) and hypotonic lysis of erythrocytes (Boyum, A., Isolation of Leukocytes From Human Blood: Further Observations. Scand. J. Lab. Clin. Inves. 21 (Suppl. 97): 31, 1968). The purity of isolated neutrophils was ≥95%.
Neutrophils (4-6×10^6) in 1 ml of Hanks' balanced salt solution containing 10 mM Hepes Buffer (HBSS), pH 7.4 and 30 μM nordihydroguaiaretic acid were incubated with 0.6 nM (^3 H) LTB4 in the presence or absence of test compounds. The incubation was carried out at 0° C. for 45 minutes and terminated by adding 5 ml of ice-cold HBSS followed by rapid filtration of incubation mixture under vacuum through GF/C glass fiber filters. The filters were further washed with 10 ml HBSS and their radioactivity was determined. Specific binding was defined as the difference between total binding and nonspecific binding which was not displaced by 10^-7 M unlabeled LTB4.
The inhibition of specific binding was determined for representative compounds of this invention, and the corresponding IC50 values calculated (Table 1). An IC50 is the concentration of the compound of interest which will inhibit the binding of LTB4 by 50% of the LTB4 receptors. For example, for the compound of Example 7, the IC50 was determined to be approximately 5 μM.

[1] = tested on: LTB4 induced neutrophil degranulation; experiment: Human Neutrophil Degranulation Assay (LTB4 induced myeloperoxidase release); type: cell-based; conditions: LTB4 5×10^-8 M, cytochalasin B, human neutrophils, 7 minutes preincubation with compound, read-out: Inhibition of LTB4 Induced Neutrophil Degranulation IC50
From the text: as §1
LTB4 induced neutrophil degranulation was determined by measuring the release of myeloperoxidase activity into the incubation medium. Neutrophils (3×10^6) in 1 ml HBSS solution was preincubated with cytochalasin B(5 μg) at 37° C. for 5 minutes, followed by preincubation with test compounds for 7 minutes. Neutrophils were then incubated for 2 to 20 minutes with either LTB4 (5×10^-8 M) or the chemotactic peptide f-met-leu-phe ([…]) to induce degranulation. Following incubation, samples were centrifuged and myleoperoxidase was extracted from the cell pellets by sonication in phosphate buffer containing 0.4% Triton X-100. Triton X-100 was also added to the supernatents to a concentration of 0.4%. The supernatants and the pellet extracts were then assayed spectrophotometrically for myeloperoxide activity by determining the rate of decomposition of H2 O2 with o-dianisidine as hydrogen donor as described by Renlund, D. G., MacFarlane, J. L., Christensen, R. D., Lynch, R. E., and Rothstein, G., A Quantitative And Sensitive Method For Measurement Of Myeloperoxidose, Clinical Research 28: 75A, 1980). Myeloperoxidase activity released into the supernatant was expressed as the percent of the average total activity (pellet plus supernatant).
The inhibition of LTB4 induced neutrophil degranulation was determined for representative compounds of this invention and their corresponding IC50 values were calculated (Table 1). The concentration of a compound which inhibited LTB4 induced neutrophil degranulation by 50% was determined to be its IC50 value.

SMILES	IC50 (LTB4 receptors)	IC50 [1] [nM]	inhibition at 10 µM (LTB4 receptors; at 10μM) [%]
CCCCCCCCC(O)c1ccc(/C=C\C(O)CCCC(=O)O)s1 (stereo not shown) [Example 23, 7-[2-[5-(1-hydroxynonyl)]thienyl-5-hydroxy-6Z-heptenoic acid, lithium salt]	5000 nM	1800	
CCCCCCCCC(O)c1ccc(C#CC(O)CCCC(=O)O)s1 (stereo not shown) [Example 22, 7-[2-[5-(1-hydroxynonyl)]thienyl-5-hydroxy-6Z-heptynoic acid, lithium salt]		8700	20
CCCCC/C=C\CC(O)c1ccc(/C=C\[C@@H](O)CCCC(=O)O)cc1 (stereo partly drawn) [Example 7, 7[4-(1-hydroxy-3Z-nonenyl)phenyl]-5S-hydroxy-6Z-heptenoic acid, lithium salt]	~5000 nM and 5000 nM	700	

More lines, in order of falling IC50 [1], values ahead:

IC50 (LTB4 receptors)	IC50 [1] [nM]	inhibition at 10 µM (LTB4 receptors; at 10μM) [%]	SMILES
2000 nM	1000		CCCCCCCCC(O)c1ccc(/C=C\C(O)CCCC(=O)O)cc1 (stereo not shown) [Example 21, 7-[4-(1-hydroxynonyl)phenyl]-5-hydroxy-6Z-heptenoic acid, lithium salt]
1000 nM	650		CCCCCCCCC(O)c1ccc(/C=C\C(O)CCCC(=O)OC)cc1 (stereo not shown) [Example 12, Methyl 7-[4-(1-hydroxynonyl)phenyl]-5-hydroxy-6Z-heptenoate]
